Measurements taken from PMC10800023 (Human Molecular Genetics, 2023).
Read-outs that look alike come from different tables or passages of the source. One block for each compound: values may come before it.

What was measured:
[1] = cited from earlier work
B10-mdx mice [2] = test: RNA-sequencing of tissues after 2 weeks of treatment (Study 1); conditions: vs vehicle-treated B10-mdx
B10-mdx mice [3] = test: Tail-suspension test 24 h after force-swim test (Study 2); format: in vivo, mouse; conditions: daily dosing 4 weeks, vs vehicle B10-mdx
Experimental: Corticosteroid-treated mice were subjected to the force-swim test (FST) followed by the tail-suspension test (TST) 24 h later. During the TST, normal mice will struggle and constantly move. However, mice show depression-like behavior by quickly giving up, stop moving, and remaining still for a greater percentage of the time.
Study 2: The goal of the second study was to evaluate corticosteroid side effects and efficacy in a longer study (4 months). After 28 days of dosing, mice were tested for depression-like behavior using a measure of corticosteroid-induced depression (FST followed by TST). Muscle function was tested via grip strength. Tests for depression and for grip-strength were done in a blinded manner. After 4 months, mice were euthanized, and tissues were collected. Bone from whole left leg was collected for micro-CT analysis. The number of animals per group was as follows: WT, n = 16; B10-mdx, n = 15; corticosteroid-treated groups, n = 8–10.
(§1) • 1) Force-swim test: Animals were single housed and acclimated in the behavior room for 30 min prior to test. A clean 1-L beaker was filled with 700 to 800 ml of 23°C water. Each mouse was placed into the water for 6 min. The total immobility time was recorded. After the test, the animals were dried and placed in a cage on a heating pad for about 10 min before returning to the home cages. • 2) Tail-suspension test: Isolated mice were suspended 50 cm above the floor by surgical tape placed approximately 1 cm from the tip of the tail for 6 min. The total immobility time of mice was measured. Mice were considered immobile only when they hung passively and completely motionless.

C57BL/6 mice = test: Tail-suspension test in WT mice after 35 days (Study 3); format: in vivo, mouse; conditions: daily for 35 days, prednisolone 15 mg/kg or vamorolone 45 mg/kg
Experimental: In the CNS of these miceFkbp5 mRNA and Ddrd4 mRNA levels were increased (Supplementary Fig. S3d and e). Expression of FKBP5 is reported to be GRE regulated, and Drd4 is a reported biomarker of depression.
as §1

[4] = cited from earlier work; remark: listed apart in the source
[5] = Pharmacokinetics and brain/plasma biodistribution in WT DBA/2 J mice
P-gp (MDR1) = test: MDR1-MDCK permeability / P-gp efflux assay; conditions: MDCK-MDR1, pH 7.4
Experimental: (§2) To measure transport by P-gp, Madin-Darby canine kidney (MDCK) cells that had been transfected with the human P-gp (MDR1) gene were plated in a Transwell plate and cultured until polarized. MDCK cells that are not transfected with human P-gp were used as a control. Compounds were added to either the apical or the basolateral side of the cells, and transport across the membrane was measured.
(§3) Testing for permeability and MDR1 substrate assessment was done in MDCK cells transfected to overexpress human MDR1 gene that encodes efflux transporter protein (P-gp). […] Briefly, cells were maintained in Dulbecco’s modified Eagle medium (DMEM) with 10% fetal bovine serum and 1% penicillin/streptomycin in a humidified incubator at 37°C with 5% CO2. The study was performed by Absorption Systems (now Pharmaron; Exton, PA). The MDR1-MDCK and MDCK control cell lines were seeded into 12-well plates for 7 days. Integrity of monolayer tight junctions was monitored preincubation by transepithelial electrical resistance (TEER) measurement. […] The samples were withdrawn at t = 0 and 60 min from the receiver and donor compartments. Compound levels were measured by LC/MS–MS. Additionally, post-assay, cell monolayer integrity was checked with Lucifer Yellow permeability measurement. Transport assay low- and high-permeability control compounds were run in parallel for assay validation. Papp values were calculated considering compound concentrations across the monolayer and cell surface area. Efflux ratios were calculated based on Papp B > A over Papp A > B. The difference between the MDR1-MDCK and the MDCK cell efflux ratios was also calculated. […] Compounds were classified by Absorption Systems/Pharmaron as follows: […]

human P-gp (MDR1) = test: MDR1-MDCK permeability / P-gp efflux assay; conditions: for Differences between ratios: MDR1-MDCK minus MDCK efflux ratio
Experimental: as §2, §3

[6] = MDCK control cell permeability (not transfected with human P-gp); conditions: dog, pH 7.4
Experimental: as §2, §3

MDCK cells = test: as above; conditions: 1 μM
Experimental: as §2, §3

[7] = human, 2 mg/kg, ref Conklin et al., Pharmacol Res. 2018
[8] = human, 6 mg/kg, ref Conklin et al., Pharmacol Res. 2018
[9] = 30 mg/kg oral gavage, DBA/2 J mice

depression-like behavior as measured by the TST (C57BL/6 mice): induced depression-like behavior
Structure (SMILES): C[C@]12C=CC(=O)C=C1CC[C@@H]1[C@@H]2[C@@H](O)C[C@@]2(C)[C@H]1CC[C@]2(O)C(=O)CO [Prednisolone]
AUC (Day 1) ([1]; human adults, 0.35 mg/kg (20 mg/57 kg), AUC0-12, average of two formulations, ref Bashar et al., Dose Response 2018): 3301 ng·h/mL
Cmax ([1]; human adults, 0.35 mg/kg (20 mg/57 kg), average of two formulations, ref Bashar et al., Dose Response 2018): 659 ng/mL
Number of genes, Quadriceps, Down-regulated (B10-mdx mice [2]; 1.2 mg/kg daily): 3855
Number of genes, Quadriceps, No Change (B10-mdx mice [2]; 1.2 mg/kg daily): 8205
Number of genes, Quadriceps, Up-regulated (B10-mdx mice [2]; 1.2 mg/kg daily): 4250
Number of genes, Quadriceps, Down-regulated (B10-mdx mice [2]; 2.4 mg/kg daily): 5216
Number of genes, Quadriceps, Up-regulated (B10-mdx mice [2]; 2.4 mg/kg daily): 6030
Number of genes, Quadriceps, Down-regulated (B10-mdx mice [2]; 5 mg/kg daily): 4173
Number of genes, Quadriceps, No Change (B10-mdx mice [2]; 5 mg/kg daily): 7883
Number of genes, Quadriceps, Up-regulated (B10-mdx mice [2]; 5 mg/kg daily): 4254
immobilization time in tail suspension test (B10-mdx mice [3]; high dose (5 mg/kg)): increased the immobilization time significantly

Brain AUC [5, 9]: 8070 h∙ng/g of tissue
Brain Cmax [5, 9]: 1825 ng/g of tissue
Brain/plasma ratio based on AUC [5, 9]: ~0.30
Brain/plasma ratio based on Cmax [5, 9]: ~0.68
fold higher exposure in the mouse (based on Cmax) than human clinical exposure ([5]; 15, 30, and 45 mg/kg in mouse vs 6 mg/kg/day in human): 2–4 fold
Cmax ([5]; mouse (DBA), 30 mg/kg): 2700 ng/mL
Papp at 60 min (P-gp (MDR1)): > 3 ×10⁻⁶ cm/s
efflux ratio at 60 min, 1 μM (P-gp (MDR1)): 6.84
efflux ratio at 60 min, 10 μM (P-gp (MDR1)): 6.42
Differences between ratios (human P-gp (MDR1); 1 μM): 6
Apical to Basolateral MDR1-MDCK (human P-gp (MDR1); 10 μM): 8.73 10 ^ −6 cm/s
Differences between ratios (human P-gp (MDR1); 10 μM): 6
brain penetration classification (human P-gp (MDR1); 1 and 10 μM, from Papp (A-to-B) and efflux ratio): moderate
Papp A→B at 60 min, 1 μM (human P-gp (MDR1); dog, MDCK-MDR1, pH 7.4): 7.99 ×10⁻⁶ cm/s
Papp B→A at 60 min, 1 μM (human P-gp (MDR1); dog, MDCK-MDR1, pH 7.4): 54.7 ×10⁻⁶ cm/s
Papp B→A at 60 min, 10 μM (human P-gp (MDR1); dog, MDCK-MDR1, pH 7.4): 56.1 ×10⁻⁶ cm/s
Papp A→B at 60 min, 10 μM [6]: 33.4 ×10⁻⁶ cm/s
Papp B→A at 60 min, 1 μM [6]: 25.2 ×10⁻⁶ cm/s
Papp B→A at 60 min, 10 μM [6]: 22.7 ×10⁻⁶ cm/s
efflux ratio at 60 min, 1 μM [6]: 0.755
efflux ratio at 60 min, 10 μM [6]: 0.746
Apical to Basolateral MDCK (MDCK cells): 33.4 10 ^ −6 cm/s
depression-like behavior as measured by the TST (C57BL/6 mice): induced depression-like behavior
Structure (SMILES): C[C@@H]1C[C@H]2[C@@H]3CCC4=CC(=O)C=C[C@]4(C)C3=CC[C@]2(C)[C@@]1(O)C(=O)CO [Vamorolone]
reduction of serum osteocalcin levels ([4]; Phase 2A, subjects with DMD, 6 mg/kg/day, 14 days of dosing): ~ 33%
reduction of osteocalcin levels ([4]; Phase 2b 24-week study in DMD boys, 6 mg/kg): 0.17%
AUC (Day 1) [1, 7]: 761 ng·h/mL
Cmax [1, 7]: 199 ng/mL
AUC (Day 1) [1, 8]: 3279 ng·h/mL
Cmax [1, 8]: 856 ng/mL
Number of genes, Quadriceps, Down-regulated (B10-mdx mice [2]; 15 mg/kg daily): 3014
Number of genes, Quadriceps, No Change (B10-mdx mice [2]; 15 mg/kg daily): 9369
Number of genes, Quadriceps, Up-regulated (B10-mdx mice [2]; 15 mg/kg daily): 3927
Number of genes, Whole Brain, Down-regulated (B10-mdx mice [2]; 15 mg/kg daily): 138
Number of genes, Whole Brain, No Change (B10-mdx mice [2]; 15 mg/kg daily): 16068
Number of genes, Whole Brain, Up-regulated (B10-mdx mice [2]; 15 mg/kg daily): 104
Number of genes, Quadriceps, Down-regulated (B10-mdx mice [2]; 30 mg/kg daily): 3138
Number of genes, Quadriceps, No Change (B10-mdx mice [2]; 30 mg/kg daily): 10053
Number of genes, Quadriceps, Up-regulated (B10-mdx mice [2]; 30 mg/kg daily): 3119
Number of genes, Whole Brain, Down-regulated (B10-mdx mice [2]; 30 mg/kg daily): 2087
Number of genes, Whole Brain, No Change (B10-mdx mice [2]; 30 mg/kg daily): 11760
Number of genes, Whole Brain, Up-regulated (B10-mdx mice [2]; 30 mg/kg daily): 2463
Number of genes, Quadriceps, Down-regulated (B10-mdx mice [2]; 45 mg/kg daily): 331
Number of genes, Quadriceps, No Change (B10-mdx mice [2]; 45 mg/kg daily): 15364
Number of genes, Quadriceps, Up-regulated (B10-mdx mice [2]; 45 mg/kg daily): 615
Number of genes, Whole Brain, Down-regulated (B10-mdx mice [2]; 45 mg/kg daily): 1114
Number of genes, Whole Brain, No Change (B10-mdx mice [2]; 45 mg/kg daily): 14218
Number of genes, Whole Brain, Up-regulated (B10-mdx mice [2]; 45 mg/kg daily): 978
immobilization time in tail suspension test (B10-mdx mice [3]; doses tested (deflazacort 1.25-15 mg/kg; vamorolone all doses 15, 30, 45 mg/kg)): increased the immobilization time significantly
